Data on one molecule can be found in publication PMC5537602, “TRPA1 channel mediates organophosphate-induced delayed neuropathy” (Cell Discovery, 2017).

In test [1] the test system is hTRPA1 carrying single mutations (C414A, C421A, C621A, C641A, C665A or K710R). Nature of the test: Whole-cell patch-clamp of mutant hTRPA1 channels. Conditions: 30 μM malathion. The test is classed as cell-based, human. The procedure: Human embryonic kidney 293 (HEK293) cells were cultured in DMEM containing 10% (vol/vol) heat-inactivated fetal bovine serum, 100 units ml^−1 penicillin–streptomycin and 2 mM L-glutamine at 37 °C in a humidity-controlled sterile incubator with 5% CO2. All cell culture reagents were purchased from Life Technologies. HEK293 cells were transfected transiently with the corresponding plasmids using lipofectamine 2000 (Life Technologies). Transfection efficiency was monitored by co-transfecting EGFP plasmid which codes for the enhanced green fluorescent protein. Electrophysiological recordings were performed between 24 and 36 h after transfection.
Whole-cell patch-clamp recordings in DRG neurons (small diameter, […]) and HEK293 cells were operated at room temperature (23–25 °C) using EPC-10 amplifier and Patch Master Software (HEKA). […] Currents were sampled at 10 kHz and low-pass filtered at 2.9 kHz. The internal solution was as follows (in mM): 140 CsCl, 10 HEPES, 5 EGTA, 0.1 CaCl2 and 1 MgCl2, with pH adjusted to 7.2 by CsOH and osmolarity 295–300 mOsm. […] TRPA1 currents development was monitored with repetitive injections of 300 ms duration voltage ramps from −100 to +100 mV every 2 s and the holding potential was set to 0 mV for 50 ms, existing in both sides of the voltage ramp. […]

In the next test the target is T1, TRPV1 (Homo sapiens, UniProt Q8NER1).
T1 construct: expressed in transfected cells; host or cells: HEK293
Nature of the test: Calcium fluorescence signal, HEK293 cells overexpressing TRPV1. The test is classed as cell-based. The following applies: 10 μM. How it is done:
(§1) Figure S3. Specificity of malathion for TRPA1 channels. (A-F) Time course of the fluorescence signal induced by malathion (Mala, 10 μM) and the indicated positive agonists (10 μM) in HEK293 cells overexpressing TRPV1 (A), TRPV3 (B), TRPV4 (C), TRPM8 (D), TRPC4 (E) and TRPC5 (F) channels. The fluorescence signals are scaled as F/F0. EC indicates external solution. […]
(§2) cells for each tested TRP channel. All bars are presented as the mean ± SEM. […]

A further test concerns the target T2, TRPV3 (Homo sapiens, UniProt Q8NET8).
T2 construct: expressed in transfected cells; host or cells: HEK293
T2 sequence (Q8NET8 1-790): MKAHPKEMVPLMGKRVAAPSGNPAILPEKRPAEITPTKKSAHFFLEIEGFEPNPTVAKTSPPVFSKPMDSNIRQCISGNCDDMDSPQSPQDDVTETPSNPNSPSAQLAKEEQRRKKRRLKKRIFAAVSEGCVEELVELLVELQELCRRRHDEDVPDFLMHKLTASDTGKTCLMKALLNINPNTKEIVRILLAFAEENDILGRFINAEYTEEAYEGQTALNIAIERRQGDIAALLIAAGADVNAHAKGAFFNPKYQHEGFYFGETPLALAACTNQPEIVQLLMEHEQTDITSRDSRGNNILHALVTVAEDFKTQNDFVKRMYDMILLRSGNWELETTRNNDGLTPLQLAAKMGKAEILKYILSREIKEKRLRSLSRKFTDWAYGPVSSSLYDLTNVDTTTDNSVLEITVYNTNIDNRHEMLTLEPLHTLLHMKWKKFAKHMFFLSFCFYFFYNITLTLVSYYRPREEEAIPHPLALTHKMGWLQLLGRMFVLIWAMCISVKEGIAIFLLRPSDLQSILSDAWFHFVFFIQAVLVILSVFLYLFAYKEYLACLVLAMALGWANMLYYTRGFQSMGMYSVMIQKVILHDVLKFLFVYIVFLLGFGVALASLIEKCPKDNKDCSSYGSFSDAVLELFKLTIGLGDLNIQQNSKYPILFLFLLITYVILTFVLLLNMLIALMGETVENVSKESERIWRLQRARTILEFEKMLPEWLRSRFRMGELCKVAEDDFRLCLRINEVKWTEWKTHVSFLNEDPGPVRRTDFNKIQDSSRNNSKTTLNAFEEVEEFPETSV
Briefly: Calcium fluorescence signal, HEK293 cells overexpressing TRPV3. The test is classed as cell-based. Conditions: 10 μM. How it is done: as §1, §2

For a further test, the target named is T3, TRPC5 (Homo sapiens, UniProt Q9UL62).
T3 construct: expressed in transfected cells; host or cells: HEK293
T3 sequence (Q9UL62 1-973): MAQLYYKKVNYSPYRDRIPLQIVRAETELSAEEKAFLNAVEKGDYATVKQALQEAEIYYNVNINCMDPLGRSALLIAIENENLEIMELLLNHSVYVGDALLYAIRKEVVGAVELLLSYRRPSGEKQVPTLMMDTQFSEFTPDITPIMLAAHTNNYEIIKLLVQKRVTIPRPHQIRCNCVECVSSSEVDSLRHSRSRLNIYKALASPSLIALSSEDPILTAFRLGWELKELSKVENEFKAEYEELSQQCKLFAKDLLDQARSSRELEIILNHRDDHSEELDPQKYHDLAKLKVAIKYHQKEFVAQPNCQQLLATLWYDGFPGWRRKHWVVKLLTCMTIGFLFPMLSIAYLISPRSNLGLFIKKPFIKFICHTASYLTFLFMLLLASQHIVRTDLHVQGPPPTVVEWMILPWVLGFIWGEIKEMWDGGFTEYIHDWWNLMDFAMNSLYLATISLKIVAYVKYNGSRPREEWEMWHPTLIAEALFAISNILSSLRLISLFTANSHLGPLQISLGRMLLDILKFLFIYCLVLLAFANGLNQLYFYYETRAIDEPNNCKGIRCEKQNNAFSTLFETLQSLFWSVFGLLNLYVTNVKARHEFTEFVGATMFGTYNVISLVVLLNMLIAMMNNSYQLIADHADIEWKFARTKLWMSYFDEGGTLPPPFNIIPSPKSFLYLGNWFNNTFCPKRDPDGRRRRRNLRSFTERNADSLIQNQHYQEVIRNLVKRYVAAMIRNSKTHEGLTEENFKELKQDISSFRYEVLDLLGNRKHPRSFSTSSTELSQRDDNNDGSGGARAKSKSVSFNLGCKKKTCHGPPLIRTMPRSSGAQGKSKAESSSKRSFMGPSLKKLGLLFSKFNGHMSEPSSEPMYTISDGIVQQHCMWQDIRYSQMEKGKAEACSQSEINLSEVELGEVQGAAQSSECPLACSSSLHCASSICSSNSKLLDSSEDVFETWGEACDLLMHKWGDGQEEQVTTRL
Nature of the test: Calcium fluorescence signal, HEK293 cells overexpressing TRPC5. Type of test: cell-based. Conditions: 10 μM. The procedure:
as §1, §2

T1 sequence (Q8NER1 whole entry, species assumed): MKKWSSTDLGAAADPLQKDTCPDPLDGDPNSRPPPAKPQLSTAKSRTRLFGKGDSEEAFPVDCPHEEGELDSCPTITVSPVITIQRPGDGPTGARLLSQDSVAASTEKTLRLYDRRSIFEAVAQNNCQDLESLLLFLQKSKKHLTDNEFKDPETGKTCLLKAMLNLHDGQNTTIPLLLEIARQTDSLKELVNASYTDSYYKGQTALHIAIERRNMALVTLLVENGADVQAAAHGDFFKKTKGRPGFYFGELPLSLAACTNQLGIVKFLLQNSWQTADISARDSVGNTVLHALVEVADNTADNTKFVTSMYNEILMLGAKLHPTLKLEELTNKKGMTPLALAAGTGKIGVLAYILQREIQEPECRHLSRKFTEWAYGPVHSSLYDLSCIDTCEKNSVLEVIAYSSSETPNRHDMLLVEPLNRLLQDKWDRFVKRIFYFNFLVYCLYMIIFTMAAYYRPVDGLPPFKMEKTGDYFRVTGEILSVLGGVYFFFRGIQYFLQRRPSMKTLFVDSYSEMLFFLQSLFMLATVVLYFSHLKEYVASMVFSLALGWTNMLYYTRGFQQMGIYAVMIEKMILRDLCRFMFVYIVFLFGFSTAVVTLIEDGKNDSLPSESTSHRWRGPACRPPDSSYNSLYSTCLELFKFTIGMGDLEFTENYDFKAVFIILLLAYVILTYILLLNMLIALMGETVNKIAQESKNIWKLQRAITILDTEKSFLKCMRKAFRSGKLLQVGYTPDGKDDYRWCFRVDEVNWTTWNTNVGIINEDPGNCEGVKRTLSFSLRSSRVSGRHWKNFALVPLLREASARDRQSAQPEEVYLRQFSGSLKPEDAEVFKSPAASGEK

Regarding `CCOC(=O)CC(SP(=S)(OC)OC)C(=O)OCC` (stereo not drawn) [malathion, S-[1,2-bis (ethoxycarbonyl)ethyl] O, O-dimethyl phosphorodithioate], the “response of mutant hTRPA1 compared to WT channels” value in test [1] is given as “significantly reduced”. Further, the “activation of TRPV1” value at TRPV1 was “could not activate”. Besides, the “activation of TRPV3” value at TRPV3 is “could not activate”. The “activation of TRPC5” value on TRPC5 is on record as “could not activate”.
